Source: article PMC8692993, “PPARα and PPARγ activation is associated with pleural mesothelioma invasion but therapeutic inhibition is ineffective” (iScience, 2021)

How the values were obtained:
[1] = target: T1, PPARδ (Homo sapiens, UniProt Q03181); assay: HG5LN reporter cell assay, PPARδ; assay type: cell-based; details: HG5LN PPARδ reporter cells
T1 construct: expressed in transfected cells; host or cells: HG5LN (HeLa-derived, GAL4RE-luciferase)
T1 sequence (Q03181 211-439 limits assumed): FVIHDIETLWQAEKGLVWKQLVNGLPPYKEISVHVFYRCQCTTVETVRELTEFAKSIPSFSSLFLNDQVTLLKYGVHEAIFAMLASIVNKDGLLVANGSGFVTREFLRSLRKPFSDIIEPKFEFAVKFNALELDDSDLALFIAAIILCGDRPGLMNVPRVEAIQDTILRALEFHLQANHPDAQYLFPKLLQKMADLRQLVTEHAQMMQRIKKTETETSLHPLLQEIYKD

[2] = In vitro metabolic stability in mouse liver microsomes; assay type: in vitro ADME
Protocol: The test compound (1 μM) was incubated at 37°C with mouse liver microsomes (XenoTech) at a protein concentration of 0.4 mg/mL. The metabolic reaction was initiated by the addition of a NADPH-regenerating system and quenched at various time points over a 60 min incubation period by the addition of acetonitrile. Control samples (without NADPH) were included (and quenched at 2, 30, 60 min) to monitor for potential degradation in the absence of cofactor. The degradation half-life and in vitro intrinsic clearance (in vitro CLint) in microsomes were calculated using the apparent first order degradation rate constant for substrate depletion ([Obach, 1999]).
Compound quantification was performed using a Xevo G2 QTOF (in vitro metabolic stability) using positive electrospray ionisation under MS^E mode or a Waters Xevo TQD (mouse exposure) mass spectrometer using positive electrospray ionisation multiple-reaction monitoring mode. Compounds were eluted using an acetonitrile-water/0.05% formic acid gradient at a flow rate of 0.4 mL/min operating over a 4 min cycle on a Waters Acquity UPLC using a Supelco Ascentis Express RP C8 column (50 × 2.1 mm, 2.7 μm). Extraction was performed by precipitation using acetonitrile (1:1 volume ratio for microsomes and 2:1 volume ratio for plasma samples) followed by centrifugation. Compound concentrations were quantified against calibration standards prepared in an appropriate matrix to match the test samples (e.g. plasma or microsomes).

[3] = test system: VGE62 human mesothelioma cell line; assay: Matrigel invasion scratch assay; assay type: cell-based; details: VGE62, 0.5, 1, 10 μM, concentration-dependent, p <0.0001
Protocol: Cells were harvested and seeded in Incucyte®ImageLock 96-well plates (Essen BioScience) at a density of 10 x 10^4 cells/mL overnight. A scratch wound was performed on the confluent cells with the 96-pin IncuCyte WoundMaker Tool (Essen BioScience). For migration assays, cells were washed with PBS once before adding 100 μL media with GW6471 at indicated concentrations. For matrigel invasion assays, cells were washed with PBS once before adding 50 μL of matrigel basement membrane matrix (FAL356231; Corning, NY, USA) at 8 mg/mL; lastly 100 μL media with GW6471 at indicated concentrations were added on top of the matrigel. Wounded cells were incubated in the IncuCyte ZOOM® at 37°C with 5% CO2. Data were analysed using the Incucyte® Scratch Wound Cell Migration Software Module and calculating the Relative Wound Density (%) (RWD) for both migration and invasion assays.

[4] = test system: AB1; assay: MTT cell metabolic activity assay, AB1; assay type: cell-based, mouse; details: AB1, 48 h, 0.391-100 μM; effect at higher micromolar concentrations
Protocol: Cells were harvested and seeded in 96-flat well plates (Corning) at a density of 5 x 10^4 cells/mL overnight. Media was removed and 100 μL media with GW6471 or GW9662 at indicated concentrations was added to each well. Cell viability and toxicity were measured at 48 h. Cells were incubated with 50 μL of a 2 mg/mL solution of (3-(4,5-dimethyl-thiazole-2-yl)-2,5-[…] tetrazolium (MTT, Sigma-Aldrich) in PBS for 4 h and then exposed to 100 μL dimethyl sulfoxide (DMSO; Sigma-Aldrich). Cell viability was measured by absorption at 570 nm in a microplate spectrophotometer (Spectromax 250 plate reader). Results are shown as relative cell viability.

[5] = test system: renal cell carcinoma; set-up: method as in Abu Aboud et al., 2015; details: 25 μM; ref Abu Aboud et al., 2015; cited from earlier work

**Q.** What does the source list for `CCC(=O)NC[C@H](Cc1ccc(OCCc2nc(-c3ccccc3)oc2C)cc1)N/C(C)=C\C(=O)c1ccc(C(F)(F)F)cc1` [GW6471]?
**A.** Effect on PPARδ in reporter cell assay [1]: no effect; In vitro CLint ([2]; NADPH-activated mouse liver microsomes): 556 μL/min/mg protein; Degradation half-life ([2]; NADPH-activated mouse liver microsomes, 1 μM, 0.4 mg/mL protein): 3 min; Stability in the absence of NADPH ([2]; mouse liver microsomes without NADPH): stable; Invasion into matrigel (relative wound density) [3]: significantly inhibited invasion; Cell viability (MTT) [4]: lowered viability; Cell-cycle arrest and apoptosis [5]: significant cell-cycle arrest and apoptosis
